Legend:
[1] = system: human peripheral blood mononuclear cells (PBMC); assay: B-cell assay with stimulated PBMCs from healthy donors; assay type: cell-based; details: for cell viability (live CD19+ B cells, flow cytometry) / stimulation‐induced B cell maturation (CD27+IgD− memory B cells of live CD19+ B cells): 6 days of culture; for IgG secretion: stimulated PBMCs from healthy human blood donors, 6 days, dose-dependent; for stimulation‐induced B cell maturation (CD27+IgD− memory B cells of live CD19+ B cells): three healthy donors
Procedure: […]

[2] = system: primary human cell‐based tissue and disease models; assay: BioMAP Diversity PLUS panel; details: for clustering of overall BioMAP responses across all biomarkers: 12 systems, Pearson's correlation >0.7; for IgG secretion, BioMAP PBMC panel: BioMAP B cell profiling
Description: Having confirmed that UNC0638 and UNC0737 are potent bona fide CHKA inhibitors, we next turned our attention to further investigate the role of CHKA in cellular signalling. While CHKA has been studied extensively in the context of malignant disease, there has been a growing acknowledgment of its relevance in immune metabolism.[9, 10] […] We profiled UNC0638 and UNC0737 alongside the orthogonal CHKA inhibitors V‐11‐0711 and ARIAD against the BioMAP Diversity PLUS panel (Figures S7).[24] This set comprises 148 distinct biomarkers across 12 systems, including panels for systemic immune responses. […] The decrease in IgG secretion was accompanied by a reduction in stimulation‐induced B cell maturation into CD27^+IgD^− memory CD19^+ B cells (Figure 4D). […]
consecutive concentrations change in the same direction relative to vehicle controls, are outside of the significance envelope, and have at least one concentration with an effect size > 20% (|log10ratio| > 0.1). Biomarker key activities are described as modulated if these activities increase in some systems, but decrease in others. Cytotoxicity is indicated on the profile plot by a thin black arrow above the x- […]
Cytotoxicity and antiproliferative arrows only require one concentration to meet the indicated threshold for profile annotation. […]

FAM195A = target: T1, FAM195A (Homo sapiens, UniProt Q9BUT9); assay: Competitive affinity-based chemoproteomics (UNC0965 matrix), MCF7 lysate; assay type: binding; details: 20 μM competitor, n=2
T1 construct: endogenous in cells; host or cells: MCF7 whole cell lysate
Procedure: A-366 and UNC0638 were purchased from Tocris. ARIAD and V-11-07-11 were purchased from Wuxi Apptec. UNC0737 and UNC0965 were synthesised as previously described.[1] Hemicholinium-3 and pyruvate kinase/lactic dehydrogenase enzymes were purchased from Sigma Aldrich. Aqueous and organic solvents were MS-grade and acquired by Sigma Aldrich unless stated otherwise.
MDA-MB-231, MCF7 and HEK293 cells were cultured in DMEM (Gibco, #11965092) supplemented with 10% FBS. K562 were cultured in IMDM (Gibco, #12440053) supplemented with 10% FBS. HepG2 were cultured in MEM (Gibco, #11095080) supplemented with 10 % FBS. […]
cultured in McCoy’s 5A (Sigma, M8403) supplemented with 10 % FBS and 1x GlutaMAX (Gibco, #35050061). Cells were maintained at 37 °C in a humidified 5% CO2 atmosphere. Peripheral blood mononuclear cells (PBMC) were isolated from healthy blood donors by density centrifugation. […]
Cell Titer-Glo® reagent was added to each well and total luminescence readings were performed within 15 min using the PHERAstar FSX (BMG Labtech). […]
Digested samples were analysed by nano-UPLC–MS/MS using a Dionex Ultimate 3000 nano UPLC fitted with an EASY spray column (75 μm × 500 mm, 2 μm particle size, Thermo Scientific), coupled to an Orbitrap Q Exactive instrument. […]

T1 sequence (Q9BUT9 whole entry): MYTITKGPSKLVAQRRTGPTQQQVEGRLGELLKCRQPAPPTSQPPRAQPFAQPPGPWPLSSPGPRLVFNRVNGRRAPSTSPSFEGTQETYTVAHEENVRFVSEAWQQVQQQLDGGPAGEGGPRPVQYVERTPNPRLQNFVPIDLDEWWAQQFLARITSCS

| Compound | cell viability (live CD19+ B cells, flow cytometry) [1] | IgG secretion [1] | stimulation‐induced B cell maturation (CD27+IgD− memory B cells of live CD19+ B cells) [1] | clustering of overall BioMAP responses across all biomarkers [2] | IgG secretion, BioMAP PBMC panel [2] | FC vs DMSO (log2 competition), FAM195A (FAM195A) |
| --- | --- | --- | --- | --- | --- | --- |
| COc1cc2c(NC3CCN(C(C)C)CC3)nc(C3CCCCC3)nc2cc1OCCCN1CCCC1 [UNC0638] | not markedly affected | reduction of IgG secretion | reduce | clustered together with the known CHKA inhibitors | significant effects on IgG secretion | -1.845 |
| COc1cc2c(N(C)C3CCN(C(C)C)CC3)nc(C3CCCCC3)nc2cc1OCCCN1CCCC1 [UNC0737] | not markedly affected | reduction of IgG secretion | reduce | clustered together with the known CHKA inhibitors | significant effects on IgG secretion | -0.06296 |

— publication PMC11811597, “Phenomics‐Based Discovery of Novel Orthosteric Choline Kinase Inhibitors” (Angewandte Chemie (International Ed. in English), 2025)
